Data as given in ChEMBL document CHEMBL3396997, “Piperidine-3,4-diol and piperidine-3-ol derivatives of pyrrolo[2,1-f][1,2,4]triazine as inhibitors of anaplastic lymphoma kinase” (Bioorg Med Chem Lett, 2015).
pIC50: −log10 of the molar value. Values after ≈ are worked out from the molar mass of the structure shown. Blank lines part the entries; values can stand above or below the compound they belong to. Active and inactive are the calls of the source. The rule behind the calls is not given here.

Columns and labels:
[1] = target: Voltage-gated inwardly rectifying potassium channel KCNH2 (Homo sapiens, UniProt Q12809); test: Inhibition of human ERG by patch clamp cellular assay
Sequence of Voltage-gated inwardly rectifying potassium channel KCNH2 (Q12809 whole entry): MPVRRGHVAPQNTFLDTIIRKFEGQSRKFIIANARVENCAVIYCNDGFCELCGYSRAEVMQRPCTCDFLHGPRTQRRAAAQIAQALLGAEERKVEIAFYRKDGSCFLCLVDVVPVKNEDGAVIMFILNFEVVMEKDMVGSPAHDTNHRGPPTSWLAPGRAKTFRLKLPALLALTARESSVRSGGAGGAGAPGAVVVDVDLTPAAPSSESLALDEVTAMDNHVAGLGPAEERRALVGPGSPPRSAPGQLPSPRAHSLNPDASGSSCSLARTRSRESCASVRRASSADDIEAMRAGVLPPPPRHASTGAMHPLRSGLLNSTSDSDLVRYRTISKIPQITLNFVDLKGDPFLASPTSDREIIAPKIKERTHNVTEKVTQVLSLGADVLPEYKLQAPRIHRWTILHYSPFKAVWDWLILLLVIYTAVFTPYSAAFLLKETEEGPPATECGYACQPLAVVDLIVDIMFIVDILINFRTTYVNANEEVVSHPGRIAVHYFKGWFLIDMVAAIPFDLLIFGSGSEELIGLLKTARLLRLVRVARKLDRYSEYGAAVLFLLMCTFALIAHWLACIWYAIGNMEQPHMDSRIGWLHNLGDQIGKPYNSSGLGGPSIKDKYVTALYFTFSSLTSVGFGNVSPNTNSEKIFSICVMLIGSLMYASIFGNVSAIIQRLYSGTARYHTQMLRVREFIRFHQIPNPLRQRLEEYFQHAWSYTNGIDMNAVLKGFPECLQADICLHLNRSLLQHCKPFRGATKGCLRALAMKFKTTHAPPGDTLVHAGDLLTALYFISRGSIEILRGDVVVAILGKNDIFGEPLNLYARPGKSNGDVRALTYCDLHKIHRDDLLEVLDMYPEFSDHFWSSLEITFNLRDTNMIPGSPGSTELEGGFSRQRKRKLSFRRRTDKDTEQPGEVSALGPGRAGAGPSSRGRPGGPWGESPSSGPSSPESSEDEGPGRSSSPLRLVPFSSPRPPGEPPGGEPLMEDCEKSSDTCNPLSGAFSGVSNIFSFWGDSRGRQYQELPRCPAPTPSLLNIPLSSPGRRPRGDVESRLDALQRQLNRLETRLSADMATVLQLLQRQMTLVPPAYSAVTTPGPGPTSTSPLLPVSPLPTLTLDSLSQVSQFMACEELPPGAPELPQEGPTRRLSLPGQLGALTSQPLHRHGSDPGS

[2] = Half life in mouse liver microsomes; assay type: ADME
[3] = Half life in rat liver microsomes; assay type: ADME
[4] = Half life in monkey liver microsomes; assay type: ADME, Macaca mulatta; conditions: rhesus monkey
[5] = Half life in human liver microsomes; assay type: ADME
[6] = Half life in Sprague-Dawley rat at 1 mg/kg, iv; assay type: ADME, organism-based; parameters: dose 1 mg/kg, route intravenous; conditions: in vivo
[7] = AUC (0 to infinity) in Sprague-Dawley rat at 1 mg/kg, iv; assay type: ADME, organism-based; parameters: time infinity, dose 1 mg/kg, route intravenous; conditions: plasma
[8] = Volume of distribution in Sprague-Dawley rat at 1 mg/kg, iv; assay type: ADME, organism-based; parameters: dose 1 mg/kg, route intravenous; conditions: in vivo
[9] = Clearance in Sprague-Dawley rat at 1 mg/kg, iv; assay type: ADME, organism-based; parameters: dose 1 mg/kg, route intravenous; conditions: in vivo
[10] = Cmax in Sprague-Dawley rat at 5 mg/kg, po; assay type: ADME, organism-based; parameters: dose 5 mg/kg, route oral; conditions: in vivo
[11] = Tmax in Sprague-Dawley rat at 5 mg/kg, po; assay type: ADME, organism-based; parameters: dose 5 mg/kg, route oral; conditions: in vivo
[12] = AUC (0 to infinity) in Sprague-Dawley rat at 5 mg/kg, po; assay type: ADME, organism-based; parameters: time infinity, dose 5 mg/kg, route oral; conditions: plasma
[13] = Oral bioavailability in Sprague-Dawley rat at 5 mg/kg; assay type: ADME, organism-based; conditions: in vivo
[14] = (§1) Plasma concentration in human SUP-M2 cells xenografted SCID mouse at 30 mg/kg, po measured after 2 hrs; assay type: ADME, organism-based; parameters: dose 30 mg/kg, route oral; conditions: SCID, plasma
[15] = (§2) Plasma concentration in human SUP-M2 cells xenografted SCID mouse at 30 mg/kg, po measured after 6 hrs; assay type: ADME, organism-based; parameters: dose 30 mg/kg, route oral; conditions: SCID, plasma
[16] = Plasma concentration in human SUP-M2 cells xenografted SCID mouse at 30 mg/kg, po measured after 12 hrs; assay type: ADME, organism-based; parameters: dose 30 mg/kg, route oral
[17] = Plasma concentration in human SUP-M2 cells xenografted SCID mouse at 30 mg/kg, po measured after 24 hrs; assay type: ADME, organism-based; parameters: dose 30 mg/kg, route oral
[18] = (§3) Drug concentration in brain of human SUP-M2 cells xenografted SCID mouse at 30 mg/kg, po measured after 2 hrs; assay type: ADME, organism-based; parameters: dose 30 mg/kg, route oral; conditions: SCID, brain, read-out: Drug uptake
[19] = (§4) Drug concentration in brain of human SUP-M2 cells xenografted SCID mouse at 30 mg/kg, po measured after 6 hrs; assay type: ADME, organism-based; parameters: dose 30 mg/kg, route oral; conditions: SCID, brain, read-out: Drug uptake
[20] = Drug concentration in brain of human SUP-M2 cells xenografted SCID mouse at 30 mg/kg, po measured after 12 hrs; assay type: ADME, organism-based; parameters: dose 30 mg/kg, route oral; conditions: read-out: Drug uptake
[21] = Drug concentration in brain of human SUP-M2 cells xenografted SCID mouse at 30 mg/kg, po measured after 24 hrs; assay type: ADME, organism-based; parameters: dose 30 mg/kg, route oral; conditions: read-out: Drug uptake
[22] = Solubility in water at neutral pH; assay type: physicochemical
Mus musculus [23] = test: Toxicity in human SUP-M2 cells xenografted SCID mouse assessed as body weight loss at 30 mg/kg, po BID for 10 days; assay type: organism-based; parameters: dose 30 mg/kg, route oral; conditions: in vivo, 240 h
Mus musculus [24] = test: Toxicity in human SUP-M2 cells xenografted SCID mouse assessed as body weight loss at 55 mg/kg, po BID for 10 days; assay type: organism-based; parameters: dose 55 mg/kg, route oral; conditions: in vivo, 240 h
Mus musculus [25] = test: Toxicity in human SUP-M2 cells xenografted SCID mouse assessed as incidences of overt toxicity at 30 mg/kg, po BID for 10 days; assay type: organism-based; parameters: dose 30 mg/kg, route oral; conditions: in vivo, 240 h
Mus musculus [26] = test: Toxicity in human SUP-M2 cells xenografted SCID mouse assessed as incidences of overt toxicity at 55 mg/kg, po BID for 10 days; assay type: organism-based; parameters: dose 55 mg/kg, route oral; conditions: in vivo, 240 h
Cytochrome P450 2C9 = Cytochrome P450 2C9 (Homo sapiens, UniProt P11712); test: Inhibition of CYP2C9 (unknown origin); assay type: ADME
Sequence of Cytochrome P450 2C9 (P11712 whole entry): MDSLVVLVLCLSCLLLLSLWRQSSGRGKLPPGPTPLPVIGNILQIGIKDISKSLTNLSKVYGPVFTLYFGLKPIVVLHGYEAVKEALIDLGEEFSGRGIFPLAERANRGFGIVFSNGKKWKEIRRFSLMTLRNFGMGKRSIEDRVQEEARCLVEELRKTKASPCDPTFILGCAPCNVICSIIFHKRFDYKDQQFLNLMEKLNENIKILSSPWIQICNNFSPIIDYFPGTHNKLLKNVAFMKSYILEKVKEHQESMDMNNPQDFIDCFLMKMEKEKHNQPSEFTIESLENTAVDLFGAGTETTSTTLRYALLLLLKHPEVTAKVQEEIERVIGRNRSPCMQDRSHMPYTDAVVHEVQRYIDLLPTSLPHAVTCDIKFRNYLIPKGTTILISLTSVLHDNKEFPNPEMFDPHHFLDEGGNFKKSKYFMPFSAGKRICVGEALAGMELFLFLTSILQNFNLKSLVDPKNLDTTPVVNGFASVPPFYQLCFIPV

Cytochrome P450 2C19 = Cytochrome P450 2C19 (Homo sapiens, UniProt P33261); test: Inhibition of CYP2C19 (unknown origin); assay type: ADME
Sequence of Cytochrome P450 2C19 (P33261 whole entry): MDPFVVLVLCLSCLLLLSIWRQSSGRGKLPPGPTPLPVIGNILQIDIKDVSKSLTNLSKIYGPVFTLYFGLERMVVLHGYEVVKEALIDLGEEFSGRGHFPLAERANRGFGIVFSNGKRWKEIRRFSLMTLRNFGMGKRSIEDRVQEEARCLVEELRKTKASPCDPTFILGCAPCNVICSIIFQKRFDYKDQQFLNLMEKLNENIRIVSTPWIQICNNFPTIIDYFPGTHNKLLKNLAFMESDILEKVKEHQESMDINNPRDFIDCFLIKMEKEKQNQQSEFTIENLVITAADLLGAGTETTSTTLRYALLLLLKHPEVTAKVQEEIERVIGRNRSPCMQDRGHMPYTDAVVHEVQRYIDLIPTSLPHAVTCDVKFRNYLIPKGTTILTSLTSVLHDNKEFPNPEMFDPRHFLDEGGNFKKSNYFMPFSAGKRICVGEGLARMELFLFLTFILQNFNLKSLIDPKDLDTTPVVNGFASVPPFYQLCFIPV

Cytochrome P450 3A4 = Cytochrome P450 3A4 (Homo sapiens, UniProt P08684); test: Inhibition of CYP3A4 (unknown origin); assay type: ADME
Sequence of Cytochrome P450 3A4 (P08684 whole entry): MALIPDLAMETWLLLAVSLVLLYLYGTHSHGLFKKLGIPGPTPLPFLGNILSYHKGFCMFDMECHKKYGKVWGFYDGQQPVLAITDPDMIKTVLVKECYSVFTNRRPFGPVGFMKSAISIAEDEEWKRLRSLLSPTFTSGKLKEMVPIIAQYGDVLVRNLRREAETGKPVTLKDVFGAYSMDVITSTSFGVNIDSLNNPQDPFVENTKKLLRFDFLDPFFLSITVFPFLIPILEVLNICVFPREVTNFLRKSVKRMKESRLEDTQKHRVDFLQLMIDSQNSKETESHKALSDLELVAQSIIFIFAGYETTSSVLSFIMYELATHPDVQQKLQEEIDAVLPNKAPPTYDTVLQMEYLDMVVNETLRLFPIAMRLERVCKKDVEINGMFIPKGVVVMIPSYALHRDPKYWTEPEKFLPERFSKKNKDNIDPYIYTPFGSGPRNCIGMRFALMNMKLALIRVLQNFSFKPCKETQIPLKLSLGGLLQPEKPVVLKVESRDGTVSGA

Cytochrome P450 1A2 = target: T1, Cytochrome P450 1A2 (Homo sapiens, UniProt P05177); test: Inhibition of CYP1A2 (unknown origin); assay type: ADME
T1 sequence (P05177 whole entry): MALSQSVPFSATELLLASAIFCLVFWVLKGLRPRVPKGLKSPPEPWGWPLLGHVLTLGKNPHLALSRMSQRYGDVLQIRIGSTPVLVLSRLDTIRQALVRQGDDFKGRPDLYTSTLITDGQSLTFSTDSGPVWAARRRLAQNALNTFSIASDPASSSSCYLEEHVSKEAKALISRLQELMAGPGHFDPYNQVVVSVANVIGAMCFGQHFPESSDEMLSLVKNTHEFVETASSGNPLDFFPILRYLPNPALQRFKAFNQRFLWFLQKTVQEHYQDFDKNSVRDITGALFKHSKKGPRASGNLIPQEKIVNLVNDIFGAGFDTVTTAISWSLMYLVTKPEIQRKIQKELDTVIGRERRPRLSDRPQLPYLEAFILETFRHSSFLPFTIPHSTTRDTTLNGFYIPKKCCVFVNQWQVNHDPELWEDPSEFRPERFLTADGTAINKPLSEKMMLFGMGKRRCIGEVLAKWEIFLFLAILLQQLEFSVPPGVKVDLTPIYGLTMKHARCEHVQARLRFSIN

Cytochrome P450 2D6 = Cytochrome P450 2D6 (Homo sapiens, UniProt P10635); test: Inhibition of CYP2D6A (unknown origin); assay type: ADME
Sequence of Cytochrome P450 2D6 (P10635 whole entry): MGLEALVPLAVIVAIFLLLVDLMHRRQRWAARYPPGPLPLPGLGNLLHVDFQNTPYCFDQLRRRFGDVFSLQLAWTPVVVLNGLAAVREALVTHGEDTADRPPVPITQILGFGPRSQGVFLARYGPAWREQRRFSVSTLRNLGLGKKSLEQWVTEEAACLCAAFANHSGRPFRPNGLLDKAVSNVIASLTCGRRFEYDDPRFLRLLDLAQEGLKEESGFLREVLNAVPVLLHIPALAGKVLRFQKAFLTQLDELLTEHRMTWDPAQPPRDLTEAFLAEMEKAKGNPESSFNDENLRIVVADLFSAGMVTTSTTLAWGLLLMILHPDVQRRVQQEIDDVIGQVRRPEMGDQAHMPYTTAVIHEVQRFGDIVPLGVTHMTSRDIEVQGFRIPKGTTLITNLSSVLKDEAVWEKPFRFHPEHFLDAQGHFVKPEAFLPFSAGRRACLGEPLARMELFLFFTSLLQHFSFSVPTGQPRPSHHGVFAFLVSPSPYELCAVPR

Plasma [27] = test: as §1; assay type: ADME, organism-based; parameters: dose 30 mg/kg, route oral; conditions: in vivo, 2 h
Plasma [28] = test: as §2; assay type: ADME, organism-based; parameters: dose 30 mg/kg, route oral; conditions: in vivo, 6 h
Brain [29] = test: as §3; assay type: ADME, organism-based; parameters: dose 30 mg/kg, route oral; conditions: in vivo, 2 h
Brain [30] = test: as §4; assay type: ADME, organism-based; parameters: dose 30 mg/kg, route oral; conditions: in vivo, 6 h
[31] = Plasma concentration in human SUP-M2 cells xenografted SCID mouse at 30 mg/kg, po measured after 16 hrs; assay type: ADME, organism-based; parameters: dose 30 mg/kg, route oral
[32] = Drug concentration in brain of human SUP-M2 cells xenografted SCID mouse at 30 mg/kg, po measured after 16 hrs; assay type: ADME, organism-based; parameters: dose 30 mg/kg, route oral; conditions: read-out: Drug uptake
SUP-M2 [33] = test: Antitumor activity against human SUP-M2 cells xenografted in SCID mouse assessed as induction of tumor regression at 30 mg/kg, po BID for 10 days; assay type: functional, organism-based; parameters: dose 30 mg/kg
SUP-M2 [34] = test: Antitumor activity against human SUP-M2 cells xenografted in SCID mouse assessed as induction of tumor regression at 55 mg/kg, po BID for 10 days; assay type: functional, organism-based; parameters: dose 55 mg/kg

Structure (SMILES): COc1cc([C@@]2(O)CCN(C)C[C@@H]2O)ccc1Nc1ncc2ccc(-c3ccccc3OC)n2n1 (relative stereo)
IC50 [1]: Active
half-life [2]: > 40 min
half-life [3]: > 40 min
half-life [4]: 32 min
half-life [5]: > 40 min

Structure (SMILES): COc1cc([C@H]2CCN(CCO)C[C@@H]2O)ccc1Nc1ncc2ccc(-c3ccccc3OC)n2n1 (relative stereo)
half-life [2]: > 40 min
half-life [3]: > 40 min
half-life [4]: 30 min
half-life [5]: > 40 min
half-life [6]: 192 min
AUC(0-inf) [7]: 0.459 µg·h/mL
Vd [8]: 10.3 L/kg
clearance [9]: 2.34 L/h/kg
Cmax [10]: 0.097 µg/mL
Tmax [11]: 240 min
AUC(0-inf) [12]: 0.708 µg·h/mL
bioavailability [13]: 31%
concentration at 2 h [14]: 0.523 µg/mL
concentration at 6 h [15]: 0.361 µg/mL
concentration at 12 h [16]: 0.213 µg/mL
concentration at 24 h [17]: 0.055 µg/mL
concentration at 2 h [18]: 1960 ng/g
concentration at 6 h [19]: 3930 ng/g
concentration at 12 h [20]: 2670 ng/g
concentration at 24 h [21]: 1280 ng/g

Structure (SMILES): COc1cc([C@@]2(O)CCN(CC(N)=O)C[C@@H]2O)ccc1Nc1ncc2ccc(-c3ccccc3OC)n2n1
half-life [2]: > 40 min
half-life [3]: 31 min
half-life [4]: 17 min
half-life [5]: > 40 min
solubility [22]: ≥ 0.033 mg/mL

Structure (SMILES): COc1cc([C@@]2(O)CCN(CC(N)=O)C[C@@H]2O)ccc1Nc1ncc2ccc(-c3ccccc3N(C)S(C)(=O)=O)n2n1
half-life [2]: > 40 min
half-life [3]: 26 min
half-life [4]: 8 min
half-life [5]: 32 min
solubility [22]: ≥ 0.033 mg/mL

Structure (SMILES): COc1cc([C@@H]2CCN(CC(N)=O)C[C@@H]2O)ccc1Nc1ncc2ccc(-c3ccccc3OC)n2n1 (relative stereo)
half-life [2]: > 40 min
half-life [3]: 34 min
half-life [4]: 7 min
half-life [5]: 19 min
solubility [22]: 0.002 mg/mL (≈ 3.98 µM)

Structure (SMILES): COc1cc([C@@H]2CCNC[C@@H]2O)ccc1Nc1ncc2ccc(-c3ccccc3OC)n2n1 (relative stereo)
half-life [2]: > 40 min
half-life [3]: > 40 min
half-life [4]: > 40 min
half-life [5]: > 40 min

Structure (SMILES): COc1cc([C@H]2CCN(CCO)C[C@@H]2O)ccc1Nc1ncc2ccc(-c3ccccc3OC)n2n1 [listing 2 of 2 here]
inhibition (SUP-M2 [33]): Active
inhibition (SUP-M2 [34]): Active

Structure (SMILES): COc1cc(C2CCN(CCO)CC2O)ccc1Nc1ncc2ccc(-c3ccccc3OC)n2n1 (single isomer, unassigned; enantiomer 1)
concentration at 2 h [14]: 0.355 µg/mL
concentration at 6 h [15]: 0.148 µg/mL
concentration at 2 h [18]: 1030 ng/g
concentration at 6 h [19]: 1160 ng/g
concentration at 16 h [31]: 0.051 µg/mL
concentration at 16 h [32]: 2210 ng/g

Structure (SMILES): COc1cc([C@@]2(O)CCNC[C@@H]2O)ccc1Nc1ncc2ccc(-c3ccccc3N(C)S(C)(=O)=O)n2n1
half-life [2]: > 40 min
half-life [3]: > 40 min
half-life [4]: 25 min
half-life [5]: > 40 min

Second part, led by results:

half-life [2]: 37 min
half-life [3]: > 40 min
half-life [4]: > 40 min
half-life [5]: > 40 min
solubility [22]: 0.05 mg/mL (≈ 102 µM)
half-life [6]: 150 min
AUC(0-inf) [7]: 0.371 µg·h/mL
Vd [8]: 9.9 L/kg
clearance [9]: 2.76 L/h/kg
Cmax [10]: 0.085 µg/mL
Tmax [11]: 360 min
AUC(0-inf) [12]: 0.479 µg·h/mL
bioavailability [13]: 26%
concentration at 2 h [14]: 0.389 µg/mL
concentration at 6 h [15]: 0.201 µg/mL
concentration at 12 h [16]: 0.164 µg/mL
concentration at 24 h [17]: 0.019 µg/mL
concentration at 2 h [18]: 1650 ng/g
concentration at 6 h [19]: 1770 ng/g
concentration at 12 h [20]: 2520 ng/g
concentration at 24 h [21]: 1580 ng/g
Structure (SMILES): COc1cc([C@@H]2CCN(CCO)C[C@@H]2O)ccc1Nc1ncc2ccc(-c3ccccc3OC)n2n1 (racemic)

pIC50 (Cytochrome P450 2C9): 4.72
pIC50 (Cytochrome P450 2C19): 4.77
pIC50 (Cytochrome P450 3A4): 4.92
pIC50 (Cytochrome P450 1A2): < 4.52
pIC50 (Cytochrome P450 2D6): < 4.52
Cp (Plasma [27]): 0.407 µg/mL
Cp (Plasma [28]): 0.573 µg/mL
Drug uptake (Brain [29]): 1217 ng/g
Drug uptake (Brain [30]): 3150 ng/g
concentration at 16 h [31]: 0.567 µg/mL
concentration at 16 h [32]: 16100 ng/g
Structure (SMILES): COc1cc([C@H]2CCN(CCO)C[C@@H]2O)ccc1Nc1ncc2ccc(-c3ccccc3OC)n2n1 [listing 1 of 2 here]
pIC50 [1]: 5.17
Activity (Mus musculus [23]): Non-toxic
Activity (Mus musculus [24]): Non-toxic
Activity (Mus musculus [25]): Non-toxic
Activity (Mus musculus [26]): Non-toxic

half-life [2]: > 40 min
half-life [3]: > 40 min
half-life [4]: > 40 min
half-life [5]: > 40 min
Structure (SMILES): COc1cc([C@@]2(O)CCNC[C@@H]2O)ccc1Nc1ncc2ccc(-c3ccccc3OC)n2n1

half-life [2]: 18 min
half-life [3]: > 40 min
half-life [4]: 22 min
half-life [5]: > 40 min
Structure (SMILES): COc1cc(C2CCN(C)CC2O)ccc1Nc1ncc2ccc(-c3ccccc3OC)n2n1 (racemic)
